We go through 2 compounds from US20160109450A1, “METHOD FOR MONITORING METASTASIS OF CANCER CELLS USING CELLS CULTURED IN THREE DIMENSIONAL COLLAGEN ENVIRONMENT” (Medicinal Bioconvergence Research Center, priority 2013, published 2016).

Data set [1] relates to MDA-MB-231 cell line. As to the kind of experiment: ChIP (chromatin immunoprecipitation) on snail1 and cortactin promoters. Type of data set: cell-based, human. Particulars: ChIP with anti-pS63 c-Jun antibody. Here is the method:
The cells were then treated with 1.5 M glycine, followed by washing with cold PBS containing protease inhibitor. The fixed cells were loaded in SDS-lysis buffer supplemented with protease/kinase inhibitor, followed by sonication for lysis. The lysed sample proceeded to […] at 13000 rpm for 3 minutes, and the supernatant was transferred into a microcentrifuge tube, followed by sonication again for chromatin fragmentation. Supernatant was obtained by centrifugation, some of which was transferred into input and some of which was reacted with the antibodies of phospho-Ser^63-c-Jun, snail1, and smad 2/3/4 (cell signaling technology, USA) at 4° C. for at least 18 hours. Upon completion of the reaction, the tube was taken out from 4° C., to which sepharose beads coated with protein A and G (1:1), followed by reaction at 4° C. for 4 hours. The tube was then washed with RIPA/150 mM NaCl solution and washed again with RIPA/350 mM NaCl solution. The washed sample was washed again with LiCl washing buffer, which was washed with TE (Tris/EDTA) solution three times. TE solution was added thereto, followed by reaction at 65° C. for 15 hours. On the 3rd day of the reaction, RNase A was added to each input and sample, followed by reaction at 37° C. Proteinase K was added thereto, followed by reaction at 55° C. for 1 hour. […]

Data set [2] deals with MDA-MB-231 cell line. The conditions noted are these: ERK inhibitor treated cells.

With `Oc1c2ccccc2c2c3c(cccc13)N=N2` [SP600125], the “binding of c-Jun to snail1 promoter region” value in the data set on MDA-MB-231 cell line [1] is on record as “did not bind”.

Take `N#CC(=C(/N)Sc1ccccc1N)/C(C#N)=C(/N)Sc1ccccc1N` [ERK inhibitor]: the cell growth entry in the data set with MDA-MB-231 cell line [2] is “did not grow normally but instead showed dying proneness”.
